According to article PMC7887755, “Structure–Activity Relationships of Pyrazolo[1,5-a]pyrimidin-7(4H)-ones as Antitubercular Agents” (ACS Infectious Diseases, 2021):
pIC50: −log10 of the molar value. ≈ marks a conversion by molar mass, not a printed value. Where “and” joins values, the source holds several entries; their conditions need not be identical. Equal values may be shown once. Read-outs that look alike come from different tables or passages of the source.

Key:
HepG2 cells = settings: 24 h
Mtb H37Rv [1] = experiment: microbe, parasite or virus in culture; type: cell-based, Mycobacterium tuberculosis
in vitro = settings: human, 24 h
[2] = system: DNA damage responsive recA and radA reporters; type: cell-based, Mycobacterium tuberculosis
[3] = system: cell wall responsive iniBAC promoter (piniB-LUX reporter strain); type: cell-based, Mycobacterium tuberculosis
Mtb strain H37Rv = experiment: MIC against Mtb H37Rv under various media/carbon sources; type: cell-based; settings: Mycobacterium tuberculosis
Mtb H37Rv WT = experiment: microbe, parasite or virus in culture; type: cell-based; settings: Mycobacterium tuberculosis
Mtb H37Rv [4] = experiment: MIC under iron-depleted (DFO) or iron-replete (FeCl3) conditions; type: cell-based, Mycobacterium tuberculosis
[5] = read-out: Cytotoxicity (IC50) Galactose, HepG2 cells in DMEM/10% FBS with galactose
[6] = read-out: Cytotoxicity (IC50) Glucose, HepG2 cells in DMEM/10% FBS supplemented with glucose
[7] = Mycobacterium tuberculosis, H37RV, read-out: MIC in 7H9 ADC
[8] = Mycobacterium tuberculosis, H37RV, read-out: MIC in 7H9 GCas
[9] = Cytotoxicity (IC50) Galactose, HepG2 cells in DMEM/10% FBS with galactose
[10] = Cytotoxicity (IC50) Glucose, HepG2 cells in DMEM/10% FBS supplemented with glucose

Question: With Antimycin [reference compound] as the compound, how does the pIC50 (HepG2 cells; [5]) read?
Answer: 5.47

Question: And the pIC50 (HepG2 cells; [6])?
Answer: 4.16

Question: What does the source list for `Cc1nn2c(=O)cc(-c3ccccc3)n(C)c2c1-c1ccccc1` [Compound P2, 2,4-Dimethyl-3,5-diphenylpyrazolo[1,5-a]pyrimidin-7(4H)-one]?
Answer: MIC (Mtb H37Rv [1]; [7]): > 100 µM; MIC (Mtb H37Rv [1]; [8]): 50 µM (≈ 15.8 µg/mL); MIC (Mtb H37Rv [1]; read-out: MIC in 7H9 GCas): 50 µM (≈ 15.8 µg/mL)

Question: Which MIC (Mtb H37Rv [1]; read-out: MIC in 7H9 ADC) does the source give for “5-Cyclohexyl-2-methyl-3-phenylpyrazolo[1,5-a]pyrimidin-7(4H)-one [Compound P11]” here?
Answer: >100 µM

Question: And the MIC (Mtb H37Rv [1]; read-out: MIC in 7H9 GCas)?
Answer: >100 µM

Question: And the pIC50 (HepG2 cells; [5])?
Answer: < 4.00

Question: What about the pIC50 (HepG2 cells; [6]) of the same compound?
Answer: < 4.00

Question: For `Cc1nn2c(=O)cc(Cc3ccccc3)[nH]c2c1-c1ccccc1` [Compound P8, 5-Benzyl-2-methyl-3-phenylpyrazolo[1,5-a]pyrimidin-7(4H)-one], which MIC (Mtb H37Rv [1]; [7]) is on record?
Answer: 75 µM (≈ 23.7 µg/mL)

Question: And the MIC (Mtb H37Rv [1]; [8])?
Answer: 3.12 µM (≈ 0.984 µg/mL)

Question: And the MIC (Mtb H37Rv [1]; read-out: MIC in 7H9 ADC)?
Answer: 75 µM (≈ 23.7 µg/mL)

Question: And the pIC50 (in vitro; [9])?
Answer: < 4.00

Question: What about the pIC50 (in vitro; [10]) of the same compound?
Answer: < 4.00

Question: With `O=c1[nH]n2c(=O)cc(-c3ccccc3)[nH]c2c1-c1ccccc1` [Compound P3, 3,5-Diphenylpyrazolo[1,5-a]pyrimidine-2,7(1H,4H)-dione] as the compound, how does the MIC (Mtb H37Rv [1]; [7]) read?
Answer: > 100 µM

Question: What about the MIC (Mtb H37Rv [1]; [8]) of the same compound?
Answer: > 100 µM

Question: For `O=c1cc(-c2ccc(F)c(F)c2)[nH]c2c(-c3ccccc3)c(C(F)(F)F)nn12` [Compound P27, 5-(3,4-Difluorophenyl)-3-phenyl-2-(trifluoromethyl)pyrazolo[1,5-a]pyrimidin-7(4H)-one], which MIC (Mtb H37Rv [1]; [7]) is on record?
Answer: > 100 µM

Question: What about the MIC (Mtb H37Rv [1]; [8]) of the same compound?
Answer: 100 µM (≈ 39.1 µg/mL)

Question: What about the pIC50 (in vitro; [9]) of the same compound?
Answer: < 4.00

Question: And the pIC50 (in vitro; [10])?
Answer: < 4.00

Question: What does the source list for `O=c1cc(-c2ccccc2)[nH]c2c(-c3ccccc3)cnn12` [Compound P22, 3,5-Diphenylpyrazolo[1,5-a]pyrimidin-7(4H)-one]?
Answer: MIC (Mtb H37Rv [1]; [7]): 12.5 µM (≈ 3.59 µg/mL); MIC (Mtb H37Rv [1]; [8]): 6.25 µM (≈ 1.8 µg/mL); pIC50 (in vitro; [9]): < 4.00; pIC50 (in vitro; [10]): < 4.00

Question: With “5-Isobutyl-2-methyl-3-phenylpyrazolo[1,5-a]pyrimidin-7(4H)-one [Compound P12]” as the compound, how does the MIC (Mtb H37Rv [1]; read-out: MIC in 7H9 ADC) read?
Answer: 100 µM

Question: What about the MIC (Mtb H37Rv [1]; read-out: MIC in 7H9 GCas) of the same compound?
Answer: 12.5 µM

Question: What about the pIC50 (HepG2 cells; [5]) of the same compound?
Answer: < 4.00

Question: What about the pIC50 (HepG2 cells; [6]) of the same compound?
Answer: < 4.00

Question: Which MIC (Mtb H37Rv [1]; read-out: MIC in 7H9 ADC) does the source give for “5-(4-Fluorophenyl)-2-methyl-3-phenylpyrazolo[1,5-a]pyrimidin-7(4H)-one [Compound P18]” here?
Answer: 6.25 µM

Question: And the MIC (Mtb H37Rv [1]; read-out: MIC in 7H9 GCas)?
Answer: 1.56 µM

Question: And the pIC50 (HepG2 cells; [5])?
Answer: < 4.00

Question: And the pIC50 (HepG2 cells; [6])?
Answer: < 4.00

Question: With `CC/C(=C(\c1ccccc1)c1ccc(OCCN(C)C)cc1)c1ccccc1` [Tamoxifen, reference compound] as the compound, how does the pIC50 (in vitro; [9]) read?
Answer: 5.23

Question: And the pIC50 (in vitro; [10])?
Answer: 5.38

Question: Which “reporter gene assay DNA damage” value [2] does the source give for `COc1ccc(-c2cc(=O)n3nc(C)c(-c4ccc(F)cc4)c3[nH]2)cc1` [Compound 4, 3-(4-Fluorophenyl)-5-(4-methoxyphenyl)-2-methylpyrazolo[1,5-a]pyrimidin-7(4H)-one, reference compound] here?
Answer: no

Question: And the “reporter gene assay cell wall” value [3]?
Answer: no

Question: And the MIC (Mtb H37Rv [1]; [7])?
Answer: 9.38 µM (≈ 3.28 µg/mL)

Question: And the MIC (Mtb H37Rv [1]; [8])?
Answer: 3.12 µM (≈ 1.09 µg/mL)

Question: And the MIC (Mtb strain H37Rv; GAST/Fe, read-out: MIC GAST)?
Answer: 3.13 µM (≈ 1.09 µg/mL)

Question: And the MIC (Mtb strain H37Rv; pH 6, read-out: MIC nitrate/butyrate)?
Answer: 6.25 µM (≈ 2.18 µg/mL)

Question: And the MIC (Mtb strain H37Rv; read-out: MIC 7H9)?
Answer: 12.5 µM (≈ 4.37 µg/mL)

Question: What about the MIC (Mtb strain H37Rv; read-out: MIC Chol) of the same compound?
Answer: 12.5 µM (≈ 4.37 µg/mL)

Question: And the MIC (Mtb strain H37Rv; read-out: MIC GBSA/DBSA)?
Answer: 9.4 µM (≈ 3.28 µg/mL)

Question: And the MIC (Mtb H37Rv WT)?
Answer: 1.56 µM (≈ 0.545 µg/mL)

Question: What about the “increase in potency under iron-depleted conditions (MIC ratio)” value (Mtb H37Rv [4]) of the same compound?
Answer: ≤ 2 fold

Question: What does the source list for `Cc1nn2c(=O)cc(CN3CCOCC3)[nH]c2c1-c1ccccc1` [Compound P10, 2-Methyl-5-(morpholinomethyl)-3-phenylpyrazolo[1,5-a]pyrimidin-7(4H)-one]?
Answer: MIC (Mtb H37Rv [1]; [7]): > 100 µM; MIC (Mtb H37Rv [1]; [8]): > 100 µM; pIC50 (in vitro; [9]): < 4.00; pIC50 (in vitro; [10]): < 4.00

Question: Which “reporter gene assay cell wall” value [3] does the source give for `CC(C)=CCC/C(C)=C/CNCCNC1C2CC3CC(C2)CC1C3` (stereo not shown) [SQ109] here?
Answer: yes

Question: What does the source list for `Cc1nn2c(=O)nc(-c3ccccc3)[nH]c2c1-c1ccccc1` [Compound P5, 7-Methyl-2,8-diphenylpyrazolo[1,5-a][1,3,5]triazin-4(1H)-one]?
Answer: MIC (Mtb H37Rv [1]; [7]): > 100 µM; MIC (Mtb H37Rv [1]; [8]): 50 µM (≈ 15.1 µg/mL); MIC (Mtb H37Rv [1]; read-out: MIC in 7H9 GCas): 50 µM (≈ 15.1 µg/mL)

Question: For `Cc1nn2c(=O)c(C)c(-c3ccccc3)[nH]c2c1-c1ccccc1` [Compound P6, 2,6-Dimethyl-3,5-diphenylpyrazolo[1,5-a]pyrimidin-7(4H)-one], which MIC (Mtb H37Rv [1]; [7]) is on record?
Answer: 43.8 µM (≈ 13.8 µg/mL)

Question: What about the MIC (Mtb H37Rv [1]; [8]) of the same compound?
Answer: 3.12 µM (≈ 0.984 µg/mL)

Question: And the pIC50 (in vitro; [9])?
Answer: < 4.00

Question: And the pIC50 (in vitro; [10])?
Answer: < 4.00

Question: Which MIC (Mtb H37Rv [1]; read-out: MIC in 7H9 ADC) does the source give for “2-Methyl-3-phenyl-5-(pyridin-3-yl)pyrazolo[1,5-a]pyrimidin-7(4H)-one [Compound P13]” here?
Answer: 50.0 µM and 50 µM

Question: And the MIC (Mtb H37Rv [1]; read-out: MIC in 7H9 GCas)?
Answer: 12.5 µM

Question: And the pIC50 (HepG2 cells; [5])?
Answer: < 4.00

Question: And the pIC50 (HepG2 cells; [6])?
Answer: < 4.00
